Measured values: PubChem BioAssay AID1918949 (Molecular Pharmacology Branch, DTP, NCI, 2023)

Tested on: K24384-001-R-PDC complex spheroid viability
Assay: Anticancer human tumor K24384-001-R-PDC patient-derived pancreatic adenocarcinoma cell line growth inhibition
Settings: for IC50: curve of first compound; for viability, T/C: stronger effect = lower value
Method in brief: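 Multicellular complex spheroids of tumor cells with human endothelial cells (HUVEC) and mesenchymal stem cells; the LSD1 inhibitor iadademstat was combined with standard-of-care or investigational agents. Top concentration at or near clinical Cmax, half-log dilutions; final DMSO ≤0.25%.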

[1] = second compound 0.1 µM, first compound 0.000316 µM
[2] = second compound 0.1 µM, first compound 0.001 µM
[3] = second compound 0.1 µM, first compound 0.00316 µM
[4] = second compound 0.1 µM, first compound 0.01 µM
[5] = second compound 0.1 µM, first compound 0.0316 µM
[6] = second compound 0.1 µM, first compound 0.1 µM
[7] = second compound 0.316 µM, first compound 0.000316 µM
[8] = second compound 0.316 µM, first compound 0.001 µM
[9] = second compound 0.316 µM, first compound 0.00316 µM
[10] = second compound 0.316 µM, first compound 0.01 µM
[11] = second compound 0.316 µM, first compound 0.0316 µM
[12] = second compound 0.316 µM, first compound 0.1 µM
[13] = second compound 1 µM, first compound 0.000316 µM
[14] = second compound 1 µM, first compound 0.001 µM
[15] = second compound 1 µM, first compound 0.00316 µM
[16] = second compound 1 µM, first compound 0.01 µM
[17] = second compound 1 µM, first compound 0.0316 µM
[18] = second compound 1 µM, first compound 0.1 µM
[19] = second compound 3.16 µM, first compound 0.000316 µM
[20] = second compound 3.16 µM, first compound 0.001 µM
[21] = second compound 3.16 µM, first compound 0.00316 µM
[22] = second compound 3.16 µM, first compound 0.01 µM
[23] = second compound 3.16 µM, first compound 0.0316 µM
[24] = second compound 3.16 µM, first compound 0.1 µM
[25] = second compound 10 µM, first compound 0.000316 µM
[26] = second compound 10 µM, first compound 0.001 µM
[27] = second compound 10 µM, first compound 0.00316 µM
[28] = second compound 10 µM, first compound 0.01 µM
[29] = second compound 10 µM, first compound 0.0316 µM
[30] = second compound 10 µM, first compound 0.1 µM
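Further: spheroids exposed to agents for seven days before luminescence viability reading.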
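Wherever viability, T/C is given: 100% = DMSO vehicle control viability.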

CC(C)CC(NC(=O)C(Cc1ccccc1)NC(=O)c1cnccn1)B(O)O (stereo not given) + NC1CC1c1ccc(-c2cccc(O)c2)cc1
IC50 (second compound 0.1 µM): 0.518 nM | IC50 (second compound 0.316 µM): 0.554 nM | IC50 (second compound 1 µM): 0.541 nM | IC50 (second compound 3.16 µM): 0.514 nM | IC50 (second compound 10 µM): 0.383 nM | viability, T/C [1]: 85.9% | viability, T/C [2]: 2.19% | viability, T/C [3]: 0.45% | viability, T/C [4]: 0.17% | viability, T/C [5]: 0.24% | viability, T/C [6]: 0.27% | viability, T/C [7]: 95.9% | viability, T/C [8]: 1.68% | viability, T/C [9]: 2.35% | viability, T/C [10]: 0.3% | viability, T/C [11]: 0.24% | viability, T/C [12]: 1.4% | viability, T/C [13]: 92% | viability, T/C [14]: 1.87% | viability, T/C [15]: 0.24% | viability, T/C [16]: 0.3% | viability, T/C [17]: 0.15% | viability, T/C [18]: 0.92% | viability, T/C [19]: 85.5% | viability, T/C [20]: 1.44% | viability, T/C [21]: 0.32% | viability, T/C [22]: 0.19% | viability, T/C [23]: 0.18% | viability, T/C [24]: 0.22% | viability, T/C [25]: 59.5% | viability, T/C [26]: 1.6% | viability, T/C [27]: 3.23% | viability, T/C [28]: 1.83% | viability, T/C [29]: 1.14% | viability, T/C [30]: 2.44%

CC(C)CC(NC(=O)CNC(=O)c1cc(Cl)ccc1Cl)B1OC(=O)CC(CC(=O)O)(C(=O)O)O1 (stereo not given) + NC1CC1c1ccc(-c2cccc(O)c2)cc1
IC50 (second compound 0.1 µM): 8.97 nM | IC50 (second compound 0.316 µM): 9.19 nM | IC50 (second compound 1 µM): 8.54 nM | IC50 (second compound 3.16 µM): 8.66 nM | IC50 (second compound 10 µM): 7.15 nM | viability, T/C [1]: 121% | viability, T/C [2]: 123% | viability, T/C [3]: 97.3% | viability, T/C [4]: 46.6% | viability, T/C [5]: 4.82% | viability, T/C [6]: 0.93% | viability, T/C [7]: 114% | viability, T/C [8]: 113% | viability, T/C [9]: 95.4% | viability, T/C [10]: 47.8% | viability, T/C [11]: 4.68% | viability, T/C [12]: 0.79% | viability, T/C [13]: 112% | viability, T/C [14]: 129% | viability, T/C [15]: 117% | viability, T/C [16]: 38.8% | viability, T/C [17]: 4.54% | viability, T/C [18]: 0.98% | viability, T/C [19]: 117% | viability, T/C [20]: 109% | viability, T/C [21]: 101% | viability, T/C [22]: 42.9% | viability, T/C [23]: 4.31% | viability, T/C [24]: 0.85% | viability, T/C [25]: 111% | viability, T/C [26]: 136% | viability, T/C [27]: 103% | viability, T/C [28]: 28.1% | viability, T/C [29]: 2.96% | viability, T/C [30]: 0.48%

Nc1ccccc1NC(=O)c1ccc(CNC(=O)OCc2cccnc2)cc1 + NC1CC1c1ccc(-c2cccc(O)c2)cc1
IC50 (second compound 0.1 µM): 430 nM | IC50 (second compound 0.316 µM): 389 nM | IC50 (second compound 1 µM): 358 nM | IC50 (second compound 3.16 µM): 328 nM | IC50 (second compound 10 µM): 312 nM | viability, T/C (second compound 0.1 µM, first compound 0.00949 µM): 111% | viability, T/C (second compound 0.1 µM, first compound 0.03 µM): 113% | viability, T/C (second compound 0.1 µM, first compound 0.0949 µM): 118% | viability, T/C (second compound 0.1 µM, first compound 0.3 µM): 68.7% | viability, T/C (second compound 0.1 µM, first compound 0.949 µM): 9.69% | viability, T/C (second compound 0.1 µM, first compound 3 µM): 0.15% | viability, T/C (second compound 0.316 µM, first compound 0.00949 µM): 95.7% | viability, T/C (second compound 0.316 µM, first compound 0.03 µM): 121% | viability, T/C (second compound 0.316 µM, first compound 0.0949 µM): 115% | viability, T/C (second compound 0.316 µM, first compound 0.3 µM): 63.1% | viability, T/C (second compound 0.316 µM, first compound 0.949 µM): 7.2% | viability, T/C (second compound 0.316 µM, first compound 3 µM): 0.13% | viability, T/C (second compound 1 µM, first compound 0.00949 µM): 101% | viability, T/C (second compound 1 µM, first compound 0.03 µM): 112% | viability, T/C (second compound 1 µM, first compound 0.0949 µM): 115% | viability, T/C (second compound 1 µM, first compound 0.3 µM): 58.6% | viability, T/C (second compound 1 µM, first compound 0.949 µM): 5.63% | viability, T/C (second compound 1 µM, first compound 3 µM): 0.16% | viability, T/C (second compound 3.16 µM, first compound 0.00949 µM): 96.1% | viability, T/C (second compound 3.16 µM, first compound 0.03 µM): 117% | viability, T/C (second compound 3.16 µM, first compound 0.0949 µM): 109% | viability, T/C (second compound 3.16 µM, first compound 0.3 µM): 54% | viability, T/C (second compound 3.16 µM, first compound 0.949 µM): 3.27% | viability, T/C (second compound 3.16 µM, first compound 3 µM): 0.11% | viability, T/C (second compound 10 µM, first compound 0.00949 µM): 101% | viability, T/C (second compound 10 µM, first compound 0.03 µM): 110% | viability, T/C (second compound 10 µM, first compound 0.0949 µM): 95.6% | viability, T/C (second compound 10 µM, first compound 0.3 µM): 52.5% | viability, T/C (second compound 10 µM, first compound 0.949 µM): 3.08% | viability, T/C (second compound 10 µM, first compound 3 µM): 0.17%

O=C(c1cc(Cc2n[nH]c(=O)c3ccccc23)ccc1F)N1CCN(C(=O)C2CC2)CC1 + NC1CC1c1ccc(-c2cccc(O)c2)cc1
IC50 (second compound 0.1 µM): > 10000 nM | IC50 (second compound 0.316 µM): > 10000 nM | IC50 (second compound 1 µM): > 10000 nM | IC50 (second compound 3.16 µM): > 10000 nM | IC50 (second compound 10 µM): > 10000 nM | viability, T/C [5]: 96.3% | viability, T/C [6]: 73.9% | viability, T/C (second compound 0.1 µM, first compound 0.316 µM): 84.4% | viability, T/C (second compound 0.1 µM, first compound 1 µM): 65.8% | viability, T/C (second compound 0.1 µM, first compound 3.16 µM): 56.2% | viability, T/C (second compound 0.1 µM, first compound 10 µM): 67.4% | viability, T/C [11]: 89.8% | viability, T/C [12]: 80.5% | viability, T/C (second compound 0.316 µM, first compound 0.316 µM): 79.5% | viability, T/C (second compound 0.316 µM, first compound 1 µM): 77% | viability, T/C (second compound 0.316 µM, first compound 3.16 µM): 57.6% | viability, T/C (second compound 0.316 µM, first compound 10 µM): 66.1% | viability, T/C [17]: 78.7% | viability, T/C [18]: 73.5% | viability, T/C (second compound 1 µM, first compound 0.316 µM): 72.6% | viability, T/C (second compound 1 µM, first compound 1 µM): 81% | viability, T/C (second compound 1 µM, first compound 3.16 µM): 66.6% | viability, T/C (second compound 1 µM, first compound 10 µM): 70.8% | viability, T/C [23]: 78.7% | viability, T/C [24]: 77.3% | viability, T/C (second compound 3.16 µM, first compound 0.316 µM): 83.8% | viability, T/C (second compound 3.16 µM, first compound 1 µM): 72.2% | viability, T/C (second compound 3.16 µM, first compound 3.16 µM): 68% | viability, T/C (second compound 3.16 µM, first compound 10 µM): 59.8% | viability, T/C [29]: 86.6% | viability, T/C [30]: 81.5% | viability, T/C (second compound 10 µM, first compound 0.316 µM): 76.5% | viability, T/C (second compound 10 µM, first compound 1 µM): 87.4% | viability, T/C (second compound 10 µM, first compound 3.16 µM): 54.5% | viability, T/C (second compound 10 µM, first compound 10 µM): 62.3%
